US5866577A, “Aromatic amidine derivatives and salts thereof” (priority 1991, dated 1999)
Counter-ions that a name gives are not always drawn.

How the values were obtained:
thrombin = molecular target: T1, thrombin (Bos taurus, UniProt P00735); assay: Measurement of Thrombin Inhibition Activity; type: biochemical
T1 construct: thrombin (for topical application use, Sankyo Co., Ltd.); purchased Sankyo Co., Ltd
Method: Measurement of Thrombin Inhibition Activity
A 100 μl portion of Tris-HCl buffered saline (pH 7.45) (TBS) containing 6 mg/ml of fibrinogen (Type 1, Daiichi Pure Chemicals Co., Ltd.) was mixed with 100 μl of physiological saline solution. At 37° C., 100 μl of Tris-HCl buffered saline (pH 7.45) (TBS) containing varying amounts of thrombin (for topical application use, Sankyo Co., Ltd.) was added to the mixture prepared above to measure clotting time using CLOTEC (Sanko Junyaku Co., Ltd.) and to prepare a calibration curve.

human FXa = human FXa (Homo sapiens, UniProt P00742); assay: Measurement of Activated Blood Coagulation Factor X (FXa) Inhibition Activity; type: biochemical; conditions: substrate S-2222, 37° C., 15 minutes
Chain of human FXa (P00742 235-488 limits assumed): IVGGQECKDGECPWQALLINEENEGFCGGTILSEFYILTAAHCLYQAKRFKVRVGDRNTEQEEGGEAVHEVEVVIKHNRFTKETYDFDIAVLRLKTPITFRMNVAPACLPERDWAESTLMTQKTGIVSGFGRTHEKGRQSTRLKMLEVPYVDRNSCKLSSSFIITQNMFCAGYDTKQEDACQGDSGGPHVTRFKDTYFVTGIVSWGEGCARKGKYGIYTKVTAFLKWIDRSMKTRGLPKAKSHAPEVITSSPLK
Chain of human FXa (P00742 41-179 limits assumed): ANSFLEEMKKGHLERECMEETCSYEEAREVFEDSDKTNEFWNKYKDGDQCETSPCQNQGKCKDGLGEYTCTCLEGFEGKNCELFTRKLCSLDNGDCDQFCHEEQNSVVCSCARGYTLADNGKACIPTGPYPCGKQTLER
Method: Measurement of Activated Blood Coagulation Factor X (FXa) Inhibition Activity
A 180 μl portion of physiological saline solution containing a compound to be tested was mixed with 200 μl of Tris-HCl buffer (pH 8.4) and 100 μl of 1 mM S-2222 (KabiVitrum AB) aqueous solution, and the mixture was incubated at 37° C. 20 μl of Tris-HCl buffered saline (pH 7.45) containing 0.6 unit/ml of human FXa was added to the mixture. After 15 minutes of incubation at the same temperature, the reaction was stopped by adding 100 μl of 60% acetic acid, and absorbance of the reaction mixture was measured. A reaction mixture with no addition of a test compound was used as a blank, and another reaction mixture in which 60% acetic acid was added prior to the addition of FXa was used as a control.

[1] = system: human blood plasma (clotting time); assay: Measurement of Anticoagulant Activity (plasma clotting time, CT2); type: biochemical; conditions: concentration which doubles the control clotting time, 37° C.
Method: Measurement of Anticoagulant Activity A blood plasma sample was prepared from human blood using a centrifuge. […] Thereafter, clotting time was measured using CLOTEC (Sanko Junyaku Co., Ltd.). A clotting time measured without adding a compound to be tested was used as a control, and a concentration of the test compound which doubles the control clotting time was calculated (hereinafter referred to as "CT2") as an index of the anticoagulant activity.

[2] = system: activated partial thromboplastin time (APTT); assay: Measurement of Anticoagulant Activity in Oral Administration (APTT); type: in vivo, male STD:Wistar rat; conditions: rat, 100 mg/kg
Method: Measurement of Anticoagulant Activity in Oral Administration
An aqueous solution of each compound to be tested was administered orally to each male STD:Wistar rat individual under an anesthetic, at a dose of 10 ml/kg body weight. Blood samples were collected periodically and blood plasma preparations were obtained from the samples to measure activated partial thromboplastin time (APTT). In the same manner, APTT was measured by administering pure water and used as a control. A test/control APTT ratio was calculated and used as an index of the anticoagulant activity.

[3] = Measurement of Solubility in Water
Method: A fixed amount of water was added to a varying amounts of each sample, and the mixture was agitated on a shaker at 25° C. for 10 minutes.

| solubility at 10 min [3] [mg/mL] | SMILES | IC50 (thrombin) [nM] | IC50 (human FXa) [nM] | Anti-Coagulation CT2 [1] [µM] | Test/Control APTT Ratio ([2]; 0.5 hr) | Test/Control APTT Ratio ([2]; 1 hr) | Test/Control APTT Ratio ([2]; 2 hr) | Test/Control APTT Ratio ([2]; 4 hr) |
| --- | --- | --- | --- | --- | --- | --- | --- | --- |
| – | CC(=N)N1CCC[C@H]1COc1ccc(C(Cc2cc3cc(C(=N)N)ccc3s2)C(=O)O)cc1.Cl.Cl (single isomer, unassigned; (+)) [Inventive Example 41, Dihydrochloride] | 9000 | 32 | – | – | – | – | – |
| – | CC(=N)N1CCC[C@H]1COc1ccc(C(Cc2cc3cc(C(=N)N)ccc3s2)C(=O)O)cc1.Cl.Cl (single isomer, unassigned; (+)) [Inventive Example 41] | – | – | 0.32 | – | – | – | – |
| – | CC(=N)N1CCC(Oc2ccc(C(Cc3ccc4ccc(C(=N)N)cc4c3)C(=O)O)cc2)CC1.Cl.Cl (single isomer, unassigned; (+)) [Inventive Example 43, (+)-2-[4-[(1-acetimidoyl-4-piperidinyl)oxy]phenyl]-3-(7-amidino-2-naphthyl)propionic Acid Dihydrochloride] | > 400000 | 13 | 0.18 | – | – | – | – |
| – | Cl.Cl.N=C(N)c1ccc2cc(CC(C(=O)O)c3ccc(O[C@H]4CCNC4)cc3)[nH]c2c1 (single isomer, unassigned; (+)) [Inventive Example 48, Dihydrochloride] | 50000 | 360 | – | – | – | – | – |
| – | Cl.Cl.N=C(N)c1ccc2cc(CC(C(=O)O)c3ccc(O[C@H]4CCNC4)cc3)[nH]c2c1 (single isomer, unassigned; (+)) [Inventive Example 48] | – | – | 3 | 1.46 | 1.42 | 1.41 | 1.18 |
| ≥ 600 | Cl.Cl.N=C(N)c1ccc2oc(C(Cc3ccc(O[C@H]4CCNC4)cc3)C(=O)O)cc2c1 (stereo partly drawn) [Inventive Example 21, 2-(5-amidino-2-benzofuranyl)-3-[4-[((3S)-3-pyrrolidinyl)-oxy]phenyl]propionic Acid Dihydrochloride] | – | – | – | – | – | – | – |
| – | Cl.Cl.N=C(N)c1ccc2sc(CC(CC(=O)O)c3ccc(O[C@H]4CCNC4)cc3)cc2c1 (stereo partly drawn) [Inventive Example 61, 4-(5-amidinobenzo[b]thien-2-yl)-3-[4-[((3S)-3-pyrrolidinyl)oxy]phenyl]butyric Acid Dihydrochloride] | – | – | – | 1.40 | 1.28 | 1.21 | 1.09 |
| – | Cl.Cl.N=C(N)c1ccc2[nH]c(CC(C(=O)O)c3ccc(O[C@H]4CCNC4)cc3)cc2c1 (stereo partly drawn) [Inventive Example 68, 3-(5-amidino-2-indolyl)-2-[4-[((3S)-3-pyrrolidinyl)oxy]-phenyl]propionic acid Dihydrochloride] | 190000 | 170 | 1.45 | – | – | – | – |
| ≥ 450 | CCn1c(CC(C(=O)O)c2ccc(O[C@H]3CCNC3)cc2)cc2ccc(C(=N)N)cc21.Cl.Cl (stereo partly drawn) [Inventive Example 73, 3-(6-amidino-1-ethyl-2-indolyl)-2-[4-[((3S)-3-pyrrolidinyl)oxy]phenyl]propionic Acid Dihydrochloride] | – | – | – | – | – | – | – |
| – | CC(=N)N1CC[C@H](Oc2ccc(C(Cc3nc4cc(C(=N)N)ccc4s3)C(=O)O)cc2)C1.Cl.Cl (stereo partly drawn) [Inventive Example 89, 2-[4-[((3S)-1-acetimidoyl-3-pyrrolidinyl)oxy]phenyl]-3-(5-amidino-2-benzothiazolyl)propionic Acid Dihydrochloride] | > 600000 | 600 | 5 | 1.24 | 1.22 | 1.17 | 1.14 |
| – | CCCCCC(=N)N1CC[C@H](Oc2ccc(C(Cc3cc4cc(C(=N)N)ccc4s3)C(=O)O)cc2)C1.Cl.Cl (stereo partly drawn) [Inventive Example 94, 3-(5-amidinobenzo[b]thien-2-yl)-2-[4-[((3S)-1-n-hexanimidoyl-3-pyrrolidinyl)oxy]phenyl]propionic Acid Dihydrochloride] | 370000 | 100 | 1.1 | – | – | – | – |
| – | Cl.Cl.N=C(N)c1ccc2sc(CC(C(=O)O)c3ccc(O[C@H]4CCN(C(=N)C5CC5)C4)cc3)cc2c1 (stereo partly drawn) [Inventive Example 95, 3-(5-amidinobenzo[b]thien-2-yl)-2-[4-[((3S)-1-cyclopropanecarboximidoyl-3-pyrrolidinyl)oxy]phenyl]propionic Acid Dihydrochloride] | 26000 | 160 | 0.8 | – | – | – | – |
| – | CC(=N)N1CCC(Oc2ccc(C(Cc3cc4cc(C(=N)N)ccc4s3)C(=O)O)cc2)CC1.Cl.Cl (stereo not shown) [Inventive Example 97, 2-[4-[(1-acetimidoyl-4-piperidinyl)oxy]phenyl]-3-(5-amidinobenzo[b]thien-2-yl)propionic acid Dihydrochloride] | 170000 | 45 | 0.23 | – | – | – | – |
| – | CCn1c(CC(C(=O)O)c2ccc(OC3CCN(C(C)=N)CC3)cc2)cc2ccc(C(=N)N)cc21.Cl.Cl (stereo not shown) [Inventive Example 98, 2-[4-[(1-acetimidoyl-4-piperidinyl)oxy]phenyl]-3-(6-amidino-1-ethyl-2-indolyl)propionic Acid Dihydrochloride] | 2500 | 11 | 0.3 | 4.07 | 3.96 | 3.37 | 2.19 |
| ≥ 450 | CC(=N)N1CC[C@H](Oc2ccc(C(CC(=O)O)Cc3cc4cc(C(=N)N)ccc4s3)cc2)C1.Cl.Cl (stereo partly drawn) [Inventive Example 104, 3-[4-[((3S)-1-acetimidoyl-3-pyrrolidinyl)oxy]phenyl]4-(5-amidinobenzo[b]thien-2-yl)butyric Acid Dihydrochloride] | 230000 | 86 | 0.64 | – | – | – | – |
| – | CCn1c(CC(C(=O)O)c2ccc(O[C@H]3CCN(C(C)=N)C3)cc2)cc2ccc(C(=N)N)cc21 (stereo partly drawn) [Inventive Example 105, 2-[4-[((3S)-1-(acetimidoyl-3-pyrrolidinyl)oxy]phenyl]-3-(6-amidino-1-ethyl-2-indolyl)propionic Acid Dihydrochloride] | 6800 | 54 | 0.35 | 2.69 | 3.60 | 2.41 | 1.66 |
| – | CC(=N)N1CC[C@H](Oc2ccc(CC(C(=O)O)c3cc4cc(C(=N)N)ccc4s3)cc2)C1 (stereo partly drawn) [Inventive Example 106, 3-[4-[((3S)-1-acetimidoyl-3-pyrrolidinyl)oxy]phenyl]-2-(5-amidinobenzo[b]thien-2-ylpropionic Acid Dihydrochloride] | 100000 | 560 | 2.3 | – | – | – | – |

| SMILES | solubility at 10 min [3] [mg/mL] | IC50 (thrombin) [nM] | IC50 (human FXa) [nM] | Anti-Coagulation CT2 [1] [µM] | Test/Control APTT Ratio ([2]; 0.5 hr) | Test/Control APTT Ratio ([2]; 1 hr) | Test/Control APTT Ratio ([2]; 2 hr) | Test/Control APTT Ratio ([2]; 4 hr) |
| --- | --- | --- | --- | --- | --- | --- | --- | --- |
| CC(=N)N1CCC[C@H]1COc1ccc(C(Cc2cc3cc(C(=N)N)ccc3s2)C(=O)O)cc1.Cl.Cl (stereo partly drawn) [Inventive Example 96, 2-[4-[((2S)-1-acetimidoyl-2-pyrrolidinyl)methoxy]phenyl]-3-(5-amidinobenzo[b]thien-2-yl)propionic Acid Dihydrochloride] | ≥ 400 | 29000 | 44 | 0.54 | 1.68 | 1.64 | 1.57 | 1.42 |
